Assay results taken from US11938136B2, “Compositions for treating spinal muscular atrophy” (Hoffmann-La Roche Inc., priority 2015, dated 2024).

Key:
[1] = tested on: SMN protein; assay: SMN protein assay (HTRF) in SMA patient fibroblast cells; format: cell-based, human; conditions: SMA patient fibroblasts
From the text: The term “EC1.5x concentration for SMN protein expression” (or “EC1.5x SMN protein”) is defined as that concentration of test compound that is effective in producing 1.5 times the amount of SMN protein in an SMA patient fibroblast cell compared to the amount produced from the vehicle control.
(A) SMN2 splicing in SMA Type 1 fibroblasts. (B) SMN protein in SMA Type 1 fibroblasts. (C) SMN protein in SMA Type 1 motor neurons. (D) SMN1 and SMN2 splicing in whole blood derived from HV. […] SMN splicing was assessed by RT-PCR, and SMN protein levels were assessed by homogenous time-resolved fluorescence (HTRF) in fibroblast lysates, and by immunostaining for SMN in motor neurons. Data represent means standard error (SEM) of 3 evaluations per data point and are expressed as fold change vs. untreated controls.
The SMN HTRF (homogeneous time resolved fluorescence) assay is used to quantify the level of SMN protein in SMA patient fibroblast cells treated with test compounds. […]
Cells are thawed and cultured in DMEM-10% FBS for 72 hours. Cells are trypsinized, counted and re-suspended to a concentration of 25,000 cells/mL in DMEM-10% FBS. […] Fluorescence for each well of the plate at 665 nm and 620 nm is measured on an EnVision multilabel plate reader (Perkin-Elmer). […]

[2] = tested on: splicing events and expression levels of genes; assay: Transcriptional profiling analysis; format: cell-based
From the text: The specific function of STRN3, SLC25A17, and GGCT and consequences of their dysregulation have not been elucidated so far. These three genes are also consistently found to be affected at the higher dose (5-fold higher than the EC90), a dose used in order to illustrate the maximum effect of this compound. Splicing events of 11 genes, including the genes FoxM1 and MADD, were affected at the higher dose but not by the lower dose. FoxM1 and MADD have been described as being involved in cell cycle regulation and apoptosis, respectively.

[3] = tested on: SMNΔ7 mice; assay: Survival and body weight of SMNΔ7 mice; format: in vivo, mouse
Protocol: FIG. 3. in vivo Effects of treatment SMNΔ7 mice with 7-(4,7-diazaspiro[2.5]octan-7-yl)-2-(2,8-dimethylimidazo[1,2-b]pyridazin-6-yl)pyrido[1,2-a]pyrimidin-4-one (Example 20). SMNΔ7 mice were treated with the compound of Example 20 from P3 onwards and animal survival (A) and body weight (B) were assessed daily until P100. Data represent means SEM of 10-12 mice per group. HET=heterozygous littermates.
Functional benefits were assessed in the severe and mild SMA mouse models. SMNΔ7 mice were treated from P3 to P23 once daily by IP injection of vehicle or the compound of Example 20, and from P24 onwards once daily by oral gavage. During the treatment period, body weight and animal survival were monitored. Over the 100-day observation period, only two heterozygous littermates died. In contrast, all vehicle-treated mice died before P21 with a median survival time (MST) of 10.5 days.

## Cc1cn2nc(-c3cc(=O)n4cc(N5CCNC6(CC6)C5)ccc4n3)cc(C)c2n1 [Example 20, 7-(4,7-diazaspiro[2.5]octan-7-yl)-2-(2,8-dimethylimidazo[1,2-b]pyridazin-6-yl)pyrido[1,2-a]pyrimidin-4-one]
[1]
  maximal increase in SMN protein above untreated cells: 60-80%
[2]; 121 nM dose
  number of genes whose expression levels were changed (p<0.01): 0
[2]; 121 nM, compared to control
  genes whose splicing events were affected: STRN3, SLC25A17 and GGCT
[2]; higher dose, 5-fold higher than the EC90, including FoxM1 and MADD
  number of genes whose splicing events were affected at the higher dose but not by the lower dose: 11
[2]; read-out: EC90 (therapeutically relevant concentration)
  EC90: 121 nM
[3]; high dose
  recovery in body weight gain as compared to heterozygous littermates: 85%
[3]; high dose: 3 mg/kg IP through P23 and 10 mg/kg PO thereafter
  animals surviving up to P100: 73%
[3]; low dose
  correction of impaired body weight increase: only mildly corrected
[3]; mid dose
  recovery in body weight gain as compared to heterozygous littermates: 71%
[3]; mid dose: 0.3 mg/kg IP through P23 and 1 mg/kg PO thereafter
  animals surviving up to P100: 80%
[3]; mid/high dose
  recovery in body weight gain as compared to heterozygous littermates: 82%
[3]; mid/high dose: 1 mg/kg IP through P23 and 3 mg/kg PO thereafter
  animals surviving up to P100: 82%
